A word on the IC50: it is the concentration that inhibits the measured activity by half.

Assay [1] in a line: Inhibition of human PCFT expressed in Chinese Hamster MTXRII-OuaR2-4 R2 cells assessed as reduction in cell proliferation after 96 hrs by CellTiter-blue assay. (In general: Alamar Blue is a resazurin reagent that responds to reducing activity.)
Assay [2] in a line: Inhibition of human FRalpha expressed in Chinese Hamster MTXRII-OuaR2-4 R2 cells assessed as reduction in cell proliferation after 96 hrs by CellTiter-blue assay.
Assay [3] can be described thus: Inhibition of human RFC expressed in Chinese Hamster MTXRII-OuaR2-4 R2 cells assessed as reduction in cell proliferation after 96 hrs by CellTiter-blue assay.
Assay [4] is described as follows: Inhibition of human FRbeta expressed in Chinese Hamster MTXRII-OuaR2-4 R2 cells assessed as reduction in cell proliferation after 96 hrs by CellTiter-blue assay.

With `Nc1nc2sc(CCCc3cc(C(=O)N[C@@H](CCC(=O)O)C(=O)O)cs3)cc2c(=O)[nH]1`, the half-inhibitory concentration (IC50) in assay [1] was 80 nM; in assay [2], 1.1 nM; in assay [3], above 1000 nM; in assay [4], 0.72 nM.
On to `Nc1nc2sc(CCCCc3ccc(C(=O)N[C@@H](CCC(=O)O)C(=O)O)cc3)cc2c(=O)[nH]1` [(S)-2-(4-(4-(2-amino-4-oxo-3,4-dihydrothieno[2,3-d]pyrimidin-6-yl)butyl)benzamido)pentanedioic acid], for which the IC50 in assay [2] was 9 nM; in assay [3] it was above 1000 nM; in assay [4], 20 nM.
Consider `Nc1nc2sc(CCCc3csc(C(=O)N[C@@H](CCC(=O)O)C(=O)O)c3)cc2c(=O)[nH]1`, for which the IC50 in assay [1] is 107 nM; in assay [2], 0.44 nM; in assay [3] it was above 1000 nM; in assay [4], 0.24 nM.
In the same order, the values of `Nc1nc2sc(CCCCc3csc(C(=O)N[C@@H](CCC(=O)O)C(=O)O)c3)cc2c(=O)[nH]1` are 460 nM, 5.6 nM, above 1000 nM and 5.6 nM.
Taken in the same sequence, the figures for `Nc1nc2sc(CCCCc3ccc(C(=O)N[C@@H](CCC(=O)O)C(=O)O)o3)cc2c(=O)[nH]1` were above 1000 nM, 11 nM, above 1000 nM and 2.6 nM.
Taken in the same sequence, the figures for `Nc1nc2sc(CCCc3ccc(C(=O)N[C@@H](CCC(=O)O)C(=O)O)s3)cc2c(=O)[nH]1` were above 1000 nM, 0.34 nM, above 1000 nM and 1.8 nM.
Turning to `Nc1nc2sc(CCCCc3cc(C(=O)N[C@@H](CCC(=O)O)C(=O)O)cs3)cc2c(=O)[nH]1`, the 50% inhibitory concentration (IC50) in assay [1] is above 1000 nM; in assay [2], 0.91 nM; in assay [3], above 1000 nM; in assay [4] it was 1.2 nM.
With `Nc1nc2sc(CCCCc3ccc(C(=O)N[C@@H](CCC(=O)O)C(=O)O)s3)cc2c(=O)[nH]1`, the IC50 is above 1000 nM in assay [1], 2.6 nM in assay [2], above 1000 nM in assay [3] and 1.7 nM in assay [4].
